In ChEMBL document CHEMBL4616639, “Simplistic perylene-related compounds as inhibitors of tick-borne encephalitis virus reproduction” (Bioorg Med Chem Lett, 2020):

Key:
[1] = Cytotoxicity against porcine PEK cells assessed as reduction in cell viability after 24 hrs by microscopic method; format: cell-based, Sus scrofa; settings: pig
[2] = Cytotoxicity against porcine PEK cells assessed as reduction in cell viability after 7 days by microscopic method; format: cell-based, Sus scrofa; settings: pig
[3] = system: Tick-borne encephalitis virus; assay: microbe, parasite or virus in culture; format: functional, organism-based; settings: PEK
[4] = Selectivity index, ratio of CC50 for porcine PEK cells assessed as reduction in cell viability after 24 hrs by microscopic method to EC50 for TBEV Absettarov infected in porcine PEK cells assessed as plaque reduction preincubated for 1 hr followed by overlaying with 1.26% methylcellulose and measured after 6 days by gentian violet staining-based assay; format: toxicity; settings: pig, read-out: Ratio CC50/EC50

| Structure (SMILES) | CC50 at 24 h [1] [µM] | CC50 at 168 h [2] [µM] | EC50 [3] [µM] | selectivity ratio at 24 h [4] |
| --- | --- | --- | --- | --- |
| O=c1[nH]c(=O)n([C@@H]2O[C@H](CO)[C@@H](O)[C@@H]2O)cc1C#Cc1ccc2c3cccc4cccc(c5cccc1c52)c43 | > 50 | > 50 |  |  |
| OC[C@H]1O[C@@H](n2cnc3c(NCc4c5ccccc5cc5ccccc45)ncnc32)[C@H](O)[C@@H]1O | > 50 | > 50 | 22 |  |
| O=c1[nH]c(=O)n([C@@H]2O[C@H](CO)[C@@H](O)[C@H]2O)cc1C#Cc1ccc2c3cccc4cccc(c5cccc1c52)c43 | > 100 | > 100 | 0.0077 |  |
| O=c1[nH]cc(C#Cc2ccc3c4cccc5cccc(c6cccc2c63)c54)c(=O)[nH]1 | > 100 | 37 | 0.008 |  |
| CO[C@@H]1[C@H](O)[C@@H](CO)O[C@H]1n1cc(C#Cc2ccc3c4cccc5cccc(c6cccc2c63)c54)c(=O)[nH]c1=O | > 50 | 38 | 0.006 |  |
| CN(C)c1ccc(C#Cc2ccc3c4cccc5cccc(c6cccc2c63)c54)cc1 | > 100 | > 100 | 0.025 |  |
| O=C(O)c1ccc(-c2ccc3c4cccc5cccc(c6cccc2c63)c54)s1 | > 70 | 26 | 0.0016 | > 30000 |
| CC(=O)Nc1ccc(C#Cc2ccc3c4cccc5cccc(c6cccc2c63)c54)cc1 | > 100 | > 100 | 0.089 |  |
| CCCCNC(=O)c1ccc(-c2ccc3c4cccc5cccc(c6cccc2c63)c54)s1 | > 100 | > 100 | 0.0039 |  |
| O=C(NCCCCO)c1ccc(-c2ccc3c4cccc5cccc(c6cccc2c63)c54)s1 | > 70 | > 70 | 0.009 |  |
| O=C(O)c1ccc2c3cccc4cccc(c5cccc1c52)c43 | > 50 | 37 | 0.037 |  |
| O=C(c1ccc(-c2ccc3c4cccc5cccc(c6cccc2c63)c54)s1)N(CCO)CCO | > 70 | > 70 | 0.015 |  |
| Cc1cc(O)c2c3c4c(cc(O)c13)C(C)(C)C(=O)c1c(O)cc(O)c(c1-4)C2=O [HELIOMYCIN] | 3.7 | 3.7 | 0.15 |  |
